Results as given in patent US11344542B2, “Treatment of aging-associated disease with modulators of leukotriene A4 hydrolase” (Alkahest, Inc., priority 2018, dated 2022).
“Also recorded” adds a separate entry of the source.

Tests used:
[1] = tested on: nineteen-month-old wild type (C57BL/6) mice; experiment: Y-maze in aged mice treated with inhibitors; type: in vivo, mouse; details: PO daily for 4 weeks, SC 5 mg/kg, CP 10 mg/kg
Protocol: A large Y-maze test assessed short-term memory of the familiarity of a specific context. Mice were brought to the experimental room for at least 30 min of acclimation to the experimental room conditions (dim lighting) prior to testing. For the initial training trial, the mouse was placed at the end of one arm of a large Y-maze designated “start arm” (arm length: 15 inches). The third arm of the maze was blocked off, allowing the mouse to explore two of the three arms freely (“start arm” and “familiar arm”) for 5 min. Each arm contained spatial cues. Three hours later, the mouse was placed back into the maze in the “start arm,” and allowed to explore all three arms with the third arm unblocked (“novel arm”). Movements in and out of each arm were tracked using automated tracking software (CleverSys or San Diego Instruments). Testing was performed under dim lighting, and the apparatus was cleaned with 70% ethanol between trials. The time spent and number of entireties into the “novel arm” and “familiar arm” were analyzed, as well as total distance travelled and velocity as measures of general locomotor activity.
Recombinant human LTA4H (Bio-techne, 4008-SN) was buffer-exchanged into sterile PBS and dosed at 4.6 ug/150 uL by tail vein i.v. injection. SC-57461A (Cayman Chemical, 423169-68) stock solution was prepared at 10 mg/mL in DMSO. […]

[2] = tested on: aquaporin 4 (AQP4) in the hippocampus; experiment: Aquaporin 4 (AQP4) immunofluorescence in the hippocampus of aged mice; type: in vivo, mouse; details: 10 mg/kg PO daily for 4 weeks
Protocol: (§1) Brains were collected following saline perfusion and separated by mid-sagittal slice with one-half drop fixed in freshly prepared 4% PFA. PFA was changed to 30% sucrose 24-48 hours later. A second change to 30% sucrose occurred 24 hours later. The second half was dissected into hippocampus and cortex and then snap frozen on dry ice.
(§2) Brain tissue was sectioned or lysed and analyzed for markers of neurogenesis and aging by standard histological and biochemical methods, including qRT-PCR, Western blot, ELISA, and immunohistochemistry.
(§3) Nineteen-month-old (19 mo) wild type (WT; C57BL/6) mice were homogenized into five (5) groups by body weight, total distance travelled in the open field test, and average velocity in the open field test. Group 1 was administered 10% EtOH control PO daily for 4 weeks, Group 2 was administered 5 mg/kg of SC-57461A LTA4H dual inhibitor PO daily for 4 weeks; Group 3 was administered 10 mg/kg of CP-105,696 LTB4 receptor (BLTR) antagonist PO daily for 4 weeks, Group 4 was administered 10 mg/kg of Montelukast cysteinyl receptor (CysLTR) antagonist daily for 4 weeks, and Group 5 was administered 10 mg/kg of pinostilbene hydrate daily for 4 weeks. During Week 4 of treatment all groups were tested using open field, radial arm water maze, and Y-maze. During Week 5 animals were sacrificed, and tissues collected for histological and biochemical analysis.

[3] = target: T1, LTA4H (Homo sapiens, UniProt P09960); details: in vitro; Low et al., Sci Rep 2017; cited from earlier work
T1 sequence (P09960 1-611): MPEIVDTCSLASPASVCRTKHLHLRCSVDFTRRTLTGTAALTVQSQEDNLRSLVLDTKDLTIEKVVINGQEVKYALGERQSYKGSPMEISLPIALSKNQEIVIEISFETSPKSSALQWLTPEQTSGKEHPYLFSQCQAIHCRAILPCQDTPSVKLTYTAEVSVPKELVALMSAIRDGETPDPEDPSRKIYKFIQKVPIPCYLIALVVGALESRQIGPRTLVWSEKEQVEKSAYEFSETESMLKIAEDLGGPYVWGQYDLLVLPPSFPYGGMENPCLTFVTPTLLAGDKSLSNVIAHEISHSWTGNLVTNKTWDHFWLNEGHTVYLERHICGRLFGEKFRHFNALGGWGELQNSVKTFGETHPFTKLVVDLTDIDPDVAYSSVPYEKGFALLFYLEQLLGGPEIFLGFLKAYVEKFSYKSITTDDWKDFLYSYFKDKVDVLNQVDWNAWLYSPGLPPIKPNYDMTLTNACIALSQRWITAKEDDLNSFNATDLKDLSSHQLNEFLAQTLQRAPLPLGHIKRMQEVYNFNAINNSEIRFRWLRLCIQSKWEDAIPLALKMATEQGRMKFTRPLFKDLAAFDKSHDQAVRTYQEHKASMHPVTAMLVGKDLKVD

[4] = tested on: hippocampal mRNA levels; experiment: qPCR of hippocampal mRNA levels in aged mice treated with inhibitors; type: in vivo, mouse; details: PO daily for 4 weeks, vs vehicle
Protocol: as §1, §2, §3

[5] = tested on: LTB4; experiment: Plasma LTB4 by ELISA in aged mice treated with inhibitors; type: in vivo, mouse; details: terminal plasma, PO daily for 4 weeks, vs vehicle
Protocol: On the final day of dosing, mice were deeply anesthetized with Avertin (250 mg/kg IP). The mice are subjected to cardiac puncture and blood samples were collected using syringes pre-filled with EDTA or heparin. Blood was either subjected to calcimycin stimulation assay or separated into plasma by centrifugation. Plasma from each mouse was aliquoted and stored at −80° C.
The concentration of mouse LTB4, the product of LTA4H enzyme hydrolysis activity, was measured using commercially-available LTB4 parameter assay kits (R&D Systems and Enzo). Blood samples were collected by cardiac puncture into pre-filled syringes with EDTA and injected into a microcentrifuge tube. The plasma was separated by centrifugation at 1000 g for 15 minutes at 4 C. Alternatively, blood was subjected to a calcimycin stimulation assay to increase the production of LTB4 prior to plasma collection. All plasma was stored at −80 C until measurement of LTB4 levels. LTB4 levels were measured from the plasma from 4-15 individual young (3 month, 3M) or aged (22.5 month, 22.5M) wild-type mice (WT; C57BL/6).
Nineteen-month-old (19 mo) wild type (WT; C57BL/6) mice were homogenized into five (5) groups by body weight, total distance travelled in the open field test, and average velocity in the open field test. […]

[6] = tested on: nineteen-month-old wild type (C57BL/6) mice; experiment: Radial arm water maze in aged mice treated with inhibitors; type: in vivo, mouse
Protocol: The water maze (see, e.g. Alamed J, et al., Two-day radial-arm water maze learning and memory tasks; robust resolution of amyloid-related memory deficits in transgenic mice., Nat. Protoc., 1(4):1671-79 (2006)), was filled with water at least 24 hours prior to the test to equilibrate to 25° C. The water was dyed with white latex paint to make the animals visible for tracking and to allow for the use of a hidden platform. Eight distinct visual cues were placed at the end of each of eight arms of the RAWM inserts. On day 1 animals were subjected to 5 trials each with a visible platform and a 30-minute inter-trial interval. Animals had 60 seconds to reach the platform. […] The goal arm remained constant and a different start arm was randomly assigned for each of the 5 trials so that mouse started in every arm once except for the two arms directly across from the platform. The goal arm was switched after every two mice and balanced between all treatment groups. After each trial the mice were placed in an empty cage with blue pads and allowed to dry off under a heat lamp before being placed back into their home cage. Testing day was 48 hours after training, when animals were subjected to the same test of 5 trials each and a 30-minute inter-trial interval, but with a hidden platform Animals were scored for the number of errors (entry into a non-goal arm) and for latency to reach the platform. All trials were recorded using TopScan software (CleverSys, Inc., Reston, Va.).
Recombinant human LTA4H (Bio-techne, 4008-SN) was buffer-exchanged into sterile PBS and dosed at 4.6 ug/150 uL by tail vein i.v. injection. SC-57461A (Cayman Chemical, 423169-68) stock solution was prepared at 10 mg/mL in DMSO. Stock solution was diluted into sterile PBS immediately prior to p.o. dosing to a final concentration of 10% DMSO and 1 mg/mL SC-57461A. Mice were p.o. dosed at 5 mg/kg. CP-105,696 (Sigma, PZ0363), Pinostilbene hydrate (Sigma, SML0098), and Montelukast (Cayman Chemical, 10008318) stock solutions were prepared at 30 mg/mL in EtOH/Solutol. […]

[7] = hidden platform testing phase, compared to vehicle mice

O=C(O)C1(c2ccc3c(c2)OC[C@H](Cc2ccc(-c4ccccc4)cc2)[C@H]3O)CCCC1 [CP-105,696]
preference for the novel versus familiar arm in Y-maze (percentage of entries) [1]: statistically significant preference for the novel arm

COc1cc(O)cc(/C=C/c2ccc(O)cc2)c1 [pinostilbene hydrate]
fluorescence intensity of AQP4 in the hippocampus immediately surrounding blood vessels (vascular) [2]: trend towards a decrease | integrated optical density of aquaporin 4 (AQP4) in the hippocampus ([2]; vs vehicle, hydrate, 10 mg/kg): trend towards a decrease; also recorded: significant reduction | inhibition of hydrolase versus peptidase activity of LTA4H [3]: only inhibit the hydrolase activity and not the peptidase activity | TNFα hippocampal mRNA expression (qPCR) [4]: significant decrease | plasma concentration of LTB4 measured by ELISA [5]: did not detect a reduction

CN(CCCOc1ccc(Cc2ccccc2)cc1)CCC(=O)O.Cl [SC-57461A]
IL-1β hippocampal mRNA expression (qPCR) [4]: significant decrease | IL-6 hippocampal mRNA expression (qPCR) [4]: significant decrease | TNFα hippocampal mRNA expression (qPCR) [4]: significant decrease | aqp4 hippocampal mRNA expression (qPCR) [4]: significant decrease | h2d1 hippocampal mRNA expression (qPCR) [4]: significant decrease | timp1 hippocampal mRNA expression (qPCR) [4]: trend towards a decrease | preference for the novel versus familiar arm in Y-maze (percentage of entries) [1]: trend towards preference for the novel arm | hippocampus-dependent spatial memory in radial arm water maze ([6]; aged mice, PO daily for 4 weeks, SC 5 mg/kg, Montelukast 10 mg/kg): improvement | latency to find the platform in radial arm water maze [6, 7]: significantly shorter latency | number of errors in radial arm water maze [6, 7]: fewer errors | plasma concentration of LTB4 measured by ELISA [5]: reduces
